# Data reported in PMC3295232 (Journal of the American Chemical Society, 2012).
# Positions count from the first letter of the chain named. Where two headings read alike, the source gives them in different places.
# T1: E91D YPDC (Saccharomyces cerevisiae, UniProt P06169, E91D)
# T1 sequence (P06169 1-563 E91D): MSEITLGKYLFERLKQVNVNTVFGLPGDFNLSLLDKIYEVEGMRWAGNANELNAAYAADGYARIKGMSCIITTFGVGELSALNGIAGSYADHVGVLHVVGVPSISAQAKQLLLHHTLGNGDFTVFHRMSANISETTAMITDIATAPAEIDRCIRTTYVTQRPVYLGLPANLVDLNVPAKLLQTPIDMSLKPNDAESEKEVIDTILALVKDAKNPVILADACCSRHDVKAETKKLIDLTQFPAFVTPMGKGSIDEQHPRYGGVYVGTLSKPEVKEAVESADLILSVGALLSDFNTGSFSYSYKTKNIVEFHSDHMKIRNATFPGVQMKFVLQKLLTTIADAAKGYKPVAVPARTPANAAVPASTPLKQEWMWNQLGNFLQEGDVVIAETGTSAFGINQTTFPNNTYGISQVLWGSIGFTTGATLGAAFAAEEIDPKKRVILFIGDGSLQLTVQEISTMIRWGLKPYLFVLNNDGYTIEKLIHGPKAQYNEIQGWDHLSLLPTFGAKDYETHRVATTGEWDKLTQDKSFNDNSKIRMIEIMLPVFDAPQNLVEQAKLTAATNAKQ
# T2: E51D YPDC (Saccharomyces cerevisiae, UniProt P06169, E51D)
# T2 sequence (P06169 1-563 E51D): T1 sequence (P06169 1-563 E91D) with E51D, D91E
# T3: D28A YPDC (Saccharomyces cerevisiae, UniProt P06169, D28A)
# T3 sequence (P06169 1-563 D28A): T1 sequence (P06169 1-563 E91D) with D28A, D91E
# T4: E477Q YPDC (Saccharomyces cerevisiae, UniProt P06169, E477Q)
# T4 sequence (P06169 1-563 E477Q): T1 sequence (P06169 1-563 E91D) with D91E, E477Q
# T5: C221E/C222A YPDC (Saccharomyces cerevisiae, UniProt P06169, C221E/C222A)
# T5 sequence (P06169 1-563 C221E/C222A): T1 sequence (P06169 1-563 E91D) with D91E, C221E, C222A
# T6: YPDC (Saccharomyces cerevisiae, UniProt P06169)
# T6 sequence (P06169 1-563): T1 sequence (P06169 1-563 E91D) with D91E
# B1: YPDC: wild type yeast pyruvate decarboxylase (EC 4.1.1.1) isolated from Saccharomyces cerevisiae (protein, UniProt P06169 2-563, looked up)
# Pyruvate decarboxylase …: SEITLGKYLFERLKQVNVNTVFGLPGDFNLSLLDKIYEVEGMRWAGNANELNAAYAADGYARIKGMSCIITTFGVGELSALNGIAGSYAEHVGVLHVVGVPSISAQAKQLLLHHTLGNGDFTVFHRMSANISETTAMITDIATAPAEIDRCIRTTYVTQRPVYLGLPANLVDLNVPAKLLQTPIDMSLKPNDAESEKEVIDTILALVKDAKNPVILADACCSRHDVKAETKKLIDLTQFPAFVTPMGKGSIDEQHPRYGGVYVGTLSKPEVKEAVESADLILSVGALLSDFNTGSFSYSYKTKNIVEFHSDHMKIRNATFPGVQMKFVLQKLLTTIADAAKGYKPVAVPARTPANAAVPASTPLKQEWMWNQLGNFLQEGDVVIAETGTSAFGINQTTFPNNTYGISQVLWGSIGFTTGATLGAAFAAEEIDPKKRVILFIGDGSLQLTVQEISTMIRWGLKPYLFVLNNDGYTIEKLIHGPKAQYNEIQGWDHLSLLPTFGAKDYETHRVATTGEWDKLTQDKSFNDNSKIRMIEIMLPVFDAPQNLVEQAKLTAATNAKQ
# How the values were obtained:
# [1] = target: T1, E91D YPDC; assay: CD titration with propionylphosphinate; type: binding; conditions: for Kd: pH 6.0, 25 °C
# [2] = target: T2, E51D YPDC; assay: CD titration with propionylphosphinate; type: binding
# [3] = target: T3, D28A YPDC; assay: CD titration with propionylphosphinate; type: binding; conditions: pH 6.0, 25 °C
# [4] = target: T4, E477Q YPDC; assay: CD titration with propionylphosphinate; type: binding; conditions: pH 6.0, 25 °C
# [5] = target: T5, C221E/C222A YPDC; assay: CD titration with propionylphosphinate; type: binding; conditions: IP form of PPThDP
# [6] = target: T6, YPDC; assay: CD titration with propionylphosphinate; type: binding; conditions: for Kd: pH 6.0, 25 °C
# [7] = test system: yeast pyruvate decarboxylase (YPDC); type: biochemical, Saccharomyces cerevisiae; conditions: 40 mM pyruvate in syringe, 10 °C, pH 6.0
# [8] = test system: yeast pyruvate decarboxylase (YPDC); conditions: reaction with pyruvate; cited from earlier work
# [9] = test system: yeast pyruvate decarboxylase (YPDC); assay: YPDC assay coupled to alcohol dehydrogenase/NADH; type: biochemical, Saccharomyces cerevisiae; conditions: pyruvate as substrate, pH 6.0, 30 °C
# [10] = read-out: Kd^app (IP), 1′,4′-iminopyrimidine tautomer of PPThDP, CD band at 297 nm
# [11] = read-out: Kd^app (MC), Michaelis complex, negative CD band at 330 nm
molecule,measurement,setting,value
"CCC(=O)[PH](=O)[O-].[Na+] [PP, sodium propionylphosphinate]",CD max (IP),"[1]; IP form of PPThDP, 297 nm",7.6 ± 0.63 (IP) mdeg
same,CD max (MC),"[1]; Michaelis complex, 330 nm",−2.85 ± 0.18 (MC) mdeg
same,Kd,[1]; [10],7.02 ± 1.34 mM
same,Kd,[1]; [11],8.02 ± 0.92 mM
same,CD max (IP),[2]; IP form of PPThDP,21.6 ± 0.54 (IP) mdeg
same,Kd,"[2]; read-out: Kd^app (IP), 1′,4′-iminopyrimidine tautomer of PPThDP, CD band at 297 nm, pH 6.0, 25 °C",13.6 ± 0.35 mM
same,Kd^app,[3],Not detected
same,Kd^app,[4],Not detected
same,CD max (IP),[5],4.7 ± 0.77 (IP) mdeg
same,CD max (IP),"[6]; IP form of PPThDP, 297 nm",15.8 ± 0.79 (IP) mdeg
same,Kd,[6]; [10],7.82 ± 0.55 mM
same,Kd,[6]; [11],9.1 ± 0.45 mM
B1,"rate constant of accumulation of IP tautomer (LThDP), CD signal at 313 nm",[7],312 s⁻¹
same,k′2 (net forward rate constant of LThDP formation),[8],294 ± 20 s⁻¹
same,kcat / subunit,[9]; per subunit,60 s⁻¹
same,S0.5,[9],1.1 ± 0.2 mM
